Assay [1] deals with L-apt3.1 (L-RNA, aptamer, all L-ribonucleotides) GCCGCACUGGUGGGUCGGUGGGAAGCGGC
The experiment in a line: ligand fluorescence enhancement. The settings on record: 150 mM KCl; 10 mM LiCaco pH 7.0; 1 μM RNA, 1 μM ligand; higher in K+ than Li+.

Assay [2] concerns D-(UG)12 (RNA, G4) UGUGUGUGUGUGUGUGUGUGUGUG
The experiment in a line: fluorescence titration (microplate reader). The settings on record: 150 mM KCl, 1 mM MgCl2; 25 mM Tris-HCl pH 7.5, 37 °C; 100 nM NMM, RNA varied; one-site fit.

Assay [3] relates to D-apt3.1e (RNA, aptamer) GCCGCAAUGGUGGGUAGGUGGGAAGCGGC
Put plainly: ligand fluorescence enhancement. The note with it: 150 mM KCl; 10 mM LiCaco pH 7.0; 1 μM RNA, 1 μM ligand; higher in K+ than Li+.

The test system of assay [4] is FAM-D-(UG)12 mut2 (RNA, single strand) UGUGCGUGUGCGUGUGCGUGUGCG
The experiment in a line: NMM staining of native gel. The note with it: 150 mM KCl (gel: 50 mM potassium acetate); 10 mM Tris-HCl pH 7.5; 2.5 μM oligo; 1 μg/mL NMM highest tested; no band.

The test system of assay [5] is D-apt3.1 (RNA, aptamer) GCCGCACUGGUGGGUCGGUGGGAAGCGGC
Put plainly: ligand fluorescence enhancement. The note with it: 150 mM KCl; 10 mM LiCaco pH 7.0; 1 μM RNA, 1 μM ligand; higher in K+ than Li+.

Assay [6] has as its system D-apt3.1g (RNA, aptamer) GCCGCACUGGCGGGUCGGUGGGAAGCGGC
Put plainly: ligand fluorescence enhancement. The settings on record: 150 mM KCl; 10 mM LiCaco pH 7.0; 1 μM RNA, 1 μM ligand; higher in K+ than Li+.

The test system of assay [7] is D-apt3.1b (RNA, aptamer) GCCGCACUUCUGGGGGGGUGGGAAGCGGC
Put plainly: ligand fluorescence enhancement. The settings on record: 150 mM KCl; 10 mM LiCaco pH 7.0; 1 μM RNA, 1 μM ligand; higher in K+ than Li+.

In assay [8] the test system is D-apt3.1i (RNA, aptamer) GCCGCACUGGUGGGUCGGUGGGAGGCGGC
Put plainly: ligand fluorescence enhancement. The settings on record: 150 mM KCl; 10 mM LiCaco pH 7.0; 1 μM RNA, 1 μM ligand; higher in K+ than Li+.

In assay [9] the test system is FAM-D-(UG)12 mut1 (RNA, single strand) UGUAUGUGUAUGUGUAUGUGUAUG
The experiment in a line: NMM staining of native gel. The note with it: 150 mM KCl (gel: 50 mM potassium acetate); 10 mM Tris-HCl pH 7.5; 2.5 μM oligo; 1 μg/mL NMM highest tested; no band.

Assay [10] relates to D-apt3.1h (RNA, aptamer) GCCGCACUGGUGGGUCGGUGGGGAGCGGC
The experiment in a line: ligand fluorescence enhancement. The settings on record: 150 mM KCl; 10 mM LiCaco pH 7.0; 1 μM RNA, 1 μM ligand; higher in K+ than Li+.

The test system of assay [11] is FAM-D-(UG)12 (RNA, G4) UGUGUGUGUGUGUGUGUGUGUGUG
Put plainly: EMSA competition. The settings on record: 150 mM KCl, 1 mM MgCl2; 25 mM Tris-HCl pH 7.5, 37 °C; 250 nM L-apt3.1 (L-RNA aptamer) displaced; 10 nM RNA.

Assay [12] deals with FAM-D-(TG)12 (DNA, single strand) TGTGTGTGTGTGTGTGTGTGTGTG
Put plainly: NMM staining of native gel. The note with it: 150 mM KCl (gel: 50 mM potassium acetate); 10 mM Tris-HCl pH 7.5; 2.5 μM oligo; 1 μg/mL NMM highest tested; no band.

Molecules are shown by their SMILES.

Regarding `CCc1c(C)c2cc3nc(cc4nc(cc5c(CC)c(C)c(cc1[nH]2)n5C)C(C)=C4CCC(=O)O)C(CCC(=O)O)=C3C`, the binding result in assay [1] is recorded as “yes”; in assay [3] it was “yes”; in assay [4], “no”; in [5] it was “yes”; in assay [6] it was “yes”; in assay [7] it was “yes”. The binding result in [8] is on record as “yes”; in assay [9], “no”; in assay [10], “yes”; in assay [12] it was “no”. In [2], the Kd came out at 0.3774 ± 0.1006 µM. The compound also yielded an IC50 in [11] of 10.7 ± 1.1 µM.

Turning to `Cc1ccc2c(c1)sc(-c1ccc(N(C)C)cc1)[n+]2C`, the binding entry in [1] and in [5] was “yes” in each case.

The values are drawn from publication PMC11890061 (2025).
